Experimental data from patent US20250170096A1, “OXPHOS INHIBITORS FOR USE IN TREATING CANCER” (ImmunoMet Therapeutics, Inc., priority 2022, published 2025).

Key:
OXPHOS = assay: Pre- and post-treatment biopsies of patients receiving cancer therapies; type: in vivo; conditions: for Effect of therapy on OXPHOS, post-treatment versus pre-treatment biopsies: across cancers, named as the most significant therapies
From the text: Biopsies were collected from subjects undergoing treatment for cancer (FIG. 1A).

[1] = test system: Patient derived xenograft cells; assay: Growth of patient derived xenograft cells treated in vitro; type: cell-based; conditions: in vitro exposure of patient-derived xenograft cells to gemcitabine; FIG. 2
Method: Patient derived xenograft cells were treated with the compound of Formula 1, Gemcitabine (Gem), or the compound of Formula 1 and gemcitabine together (FIG. 2). Cells treated with both Gem and Formula 1 grew slower than cells treated with Formula 1 or Gem alone.

Structure (SMILES): N#Cc1ccc(C(c2ccc(C#N)cc2)n2cncn2)cc1 [letrozole]
- Effect of therapy on OXPHOS, post-treatment versus pre-treatment biopsies (OXPHOS): increase OXPHOS
- OXPHOS following treatment (OXPHOS; breast cancer, FIG. 1E): increase in OXPHOS

Structure (SMILES): CC(=O)O[C@H]1C(=O)[C@@]2(C)[C@H]([C@H](OC(=O)c3ccccc3)[C@]3(O)C[C@H](OC(=O)[C@H](O)[C@@H](NC(=O)c4ccccc4)c4ccccc4)C(C)=C1C3(C)C)[C@]1(OC(C)=O)CO[C@@H]1C[C@@H]2O [paclitaxel]
- Effect of therapy on OXPHOS, post-treatment versus pre-treatment biopsies (OXPHOS): increase OXPHOS
- OXPHOS following treatment (OXPHOS; breast cancer, endometrial cancer, NSCLC, ovarian cancer, FIG. 1I): increase in OXPHOS

Structure (SMILES): COc1cccc2c1C(=O)c1c(O)c3c(c(O)c1C2=O)C[C@@](O)(C(=O)CO)C[C@@H]3O[C@H]1C[C@H](N)[C@H](O)[C@H](C)O1 [doxorubicin]
- Effect of therapy on OXPHOS, post-treatment versus pre-treatment biopsies (OXPHOS): increase OXPHOS
- OXPHOS following treatment (OXPHOS; bladder cancer, breast cancer, sarcoma, FIG. 1H): increase in OXPHOS

Structure (SMILES): CCNC(=O)[C@@H]1CCCN1C(=O)[C@H](CCCNC(=N)N)NC(=O)[C@H](CC(C)C)NC(=O)[C@@H](CC(C)C)NC(=O)[C@H](Cc1ccc(O)cc1)NC(=O)[C@H](CO)NC(=O)[C@H](Cc1c[nH]c2ccccc12)NC(=O)[C@H](Cc1c[nH]cn1)NC(=O)[C@@H]1CCC(=O)N1 [leuprolide]
- Effect of therapy on OXPHOS, post-treatment versus pre-treatment biopsies (OXPHOS): increase OXPHOS
- OXPHOS following treatment (OXPHOS; breast cancer and prostate cancer, FIG. 1C): increase in OXPHOS

Structure (SMILES): CNC(=O)c1ccc(N2C(=S)N(c3ccc(C#N)c(C(F)(F)F)c3)C(=O)C2(C)C)cc1F [enzalutamide]
- Effect of therapy on OXPHOS, post-treatment versus pre-treatment biopsies (OXPHOS): increase OXPHOS
- OXPHOS following treatment (OXPHOS; prostate cancer, FIG. 1D): increase in OXPHOS

Structure (SMILES): N.N.O=C([O-])C1(C(=O)[O-])CCC1.[Pt+2] [carboplatin]
- Effect of therapy on OXPHOS, post-treatment versus pre-treatment biopsies (OXPHOS): increase OXPHOS
- OXPHOS following treatment (OXPHOS; breast cancer, endometrial cancer, NSCLC, ovarian cancer, FIG. 1G): increase in OXPHOS

Structure (SMILES): C[C@]12CC[C@@H]3c4ccc(O)cc4C[C@@H](CCCCCCCCC[S+]([O-])CCCC(F)(F)C(F)(F)F)[C@H]3[C@@H]1CC[C@@H]2O (some centres unmarked) [fulvestrant]
- Effect of therapy on OXPHOS, post-treatment versus pre-treatment biopsies (OXPHOS): increase OXPHOS
- OXPHOS following treatment (OXPHOS; breast cancer, FIG. 1E): increase in OXPHOS

Structure (SMILES): O=P1(N(CCCl)CCCl)NCCCO1 (centres unmarked) [cyclophosphamide]
- Effect of therapy on OXPHOS, post-treatment versus pre-treatment biopsies (OXPHOS): increase OXPHOS
- OXPHOS following treatment (OXPHOS; breast cancer and sarcoma, FIG. 1F): increase in OXPHOS

Structure (SMILES): Nc1ccn([C@@H]2O[C@H](CO)[C@@H](O)C2(F)F)c(=O)n1 [gemcitabine, Gemcitabine]
- Sensitization of tumor cells to the compound of Formula 1 [1]: sensitizes tumor cells to the compound of Formula 1
